Reference: patent publication US20230090255A1, “MAGL INHIBITOR, PREPARATION METHOD THEREFOR AND USE THEREOF” (LUNAN PHARMACEUTICAL GROUP CORPORATION, priority 2019, published 2023)
Marks after values point to notes of the source that are not given here.

Tests used:
[1] = system: reserpine-induced mice depression; test: Reserpine-induced mice depression; type: in vivo, ICR mouse; parameters: Awakening / Finger contact / Head touch / Fear / Autonomic activity / Eyelid closure / Upright: scale not given here
Experimental: • Species: ICR mouse • Microbiological level: SPF • Quantity and sex of the animals purchased: male: 75; female: 75 • Quantity and sex of the animals used: male: 75; female: 75 • Body weight: 13-18 g when accepted
Group design: there were 50 pieces for each batch of animals and 3 batches in total; each batch of animals were randomly divided into 5 groups; low, middle and high-dose groups of the samples for test, blank control group and model group; a sample for test was tested per batch.
3.1 Animals were administrated via subcutaneous injection per day with doses of 4, 8 and 16 mg/kg for 6 d in total. 2 h later after the final administration, each animal was subcutaneously injected with 4 mg/kg reserpine except the blank control group; afterwards, indicators, such as, awakening, finger contact, fear, head touch, autonomic activity, upright and eyelid closure were determined 2 h later.
Data statistics and analysis were completed via a computer by SPSS 17.0 software and office 2016, and data statistics was inspected by Kruskal-Wallis. If the Kruskal-Wallis inspection result is significant ((P<0.05), multiple comparison inspection is further performed by a Mann-Whitney U nonparametric test method.

[2] = Tissue distribution test in mice; type: in vivo; parameters: content in the brain (tissue distribution): unit not given here; details: 16 mg/kg subcutaneous injection
[3] = system: mice tail suspension test; test: Mice tail suspension test; type: in vivo, ICR mice; details: final 4 min of 6 min, 5 mg/kg intragastric once per day 10 d
Experimental: Male ICR mice having a body weight of 18-22 g. The animals were active on a schedule of normal illumination for 12 h and in the dark for 12 h. Environmental temperature and relative humidity were relatively kept for 22±1° C. and 55±5%.
There were 7 groups of laboratory mice, 10 pieces each group, set as a control group (normal saline), a positive control group (fluoxetine hydrochloride capsule, 5 mg/kg), 5 MAGLZ-II series of administration treatment groups: MAGLZ-II-06, MAGLZ-II-07, MAGLZ-II-11, MAGLZ-II-17 and MAGLZ-II-18, respectively, with an administration concentration of 5 mg/kg.
All medicaments were used once per day via intragastric administration with a dose of 20 mL/kg (body weight), lasting for 10 d. 1 h later after the final administration, the detection of animal behaviors was started.
The tail suspension test (TST) was performed by the method established by Porsolt, et al. (Porsolt R D, Le Pichon M, Jalfre M. Depression: a new animal model sensitive to antidepressant treatments[J]. Nature, 1977, 266(5604):730-732). Mice were respectively suspended on the tail portions with tail suspension clamps at a distance of 10 mm away from the tail portion of the box (250 mm×250 mm×300 mm) and a distance of 5 cm where the head of each mouse was away from the bottom portion. Noise was tested in a dark room having minimum background, and each mouse was suspended for 6 min, and an immobility time was recorded at intervals in the final 4 min. Judgment standard: the mice stopped struggling and kept still completely.
All data are shown by x̅±SD, and the comparison among groups is analyzed by one-way variance.

[4] = high dose 16 mg/kg sc 6 d, 2 h after reserpine 4 mg/kg
[5] = low dose 4 mg/kg sc 6 d, 2 h after reserpine 4 mg/kg
[6] = middle dose 8 mg/kg sc 6 d, 2 h after reserpine 4 mg/kg

For `O=C(Nc1cccc(Cl)c1)C1CCN(C(=O)c2cccc(O)c2)CC1` [MAGLZ-II-11], the “effect on reserpine-induced depression (conclusion)” value ([1]; 4, 8 and 16 mg/kg sc 6 d) was “has a certain effect”, the Autonomic activity [1, 4] was 1.8±1.66* * and the Awakening [1, 4] was 3.2±1.33. For the same molecule, the Eyelid closure [1, 4] was 2±1.26, the Fear [1, 4] was 0.2±0.60 and the Finger contact [1, 4] was 2±1.79. The Head touch [1, 4] was 2.6±1.56, the Upright [1, 4] was 1±1.61* * and the Autonomic activity [1, 5] was 0.8±1.60. For the same molecule, the Awakening [1, 5] was 3±1.61, the Eyelid closure [1, 5] was 1.2±0.98 and the Fear [1, 5] was 0±0. For the same molecule, the Finger contact [1, 5] was 1.6±1.50, the Head touch [1, 5] was 1±1.34 and the Autonomic activity [1, 6] was 0.8±1.60. For the same molecule, the Awakening [1, 6] was 2.6±1.56, the Eyelid closure [1, 6] was 1.4±1.28 and the Fear [1, 6] was 0±0. For the same molecule, the Finger contact [1, 6] was 1.8±1.66, the Head touch [1, 6] was 1.8±1.40 and the “content in the brain, ranking of the test substances” value [2] was “lowest”. The “content in the brain (tissue distribution)” value ([2]; 1.0 h) was 0, the “content in the brain (tissue distribution)” value ([2]; 2.0 h) was 1.6 and the “content in the brain (tissue distribution)” value ([2]; 5.0 h) was 1.3. It also gave an Accumulated immobility time [3] of 72.81±23.49 S.
With `O=C(Nc1cccc(Cl)c1)C1CCN(C(=O)c2cc3ccccc3[nH]2)CC1` [MAGLZ-II-18] the Accumulated immobility time [3] was 79.68±25.72 S.
